Assay results from ChEMBL document CHEMBL5137088 (J Med Chem, 2022).
pIC50: −log10 of the molar value.

How the values were obtained:
[1] = in vitro; settings: dog, MDCK cells
[2] = in vitro; settings: chicken, chick embryo fibroblast cells
[3] = Subacute toxicity in 12 hrs fasted Kunming mouse assessed as animal death at 50 mg/kg, iv administered once every two days for 2 weeks; assay type: organism-based; settings: in vivo
[4] = target: Cytochrome P450 2C19 (Homo sapiens, UniProt P33261); assay type: ADME, microsomes, Liver, Microsome
Chain of Cytochrome P450 2C19 (P33261 whole entry): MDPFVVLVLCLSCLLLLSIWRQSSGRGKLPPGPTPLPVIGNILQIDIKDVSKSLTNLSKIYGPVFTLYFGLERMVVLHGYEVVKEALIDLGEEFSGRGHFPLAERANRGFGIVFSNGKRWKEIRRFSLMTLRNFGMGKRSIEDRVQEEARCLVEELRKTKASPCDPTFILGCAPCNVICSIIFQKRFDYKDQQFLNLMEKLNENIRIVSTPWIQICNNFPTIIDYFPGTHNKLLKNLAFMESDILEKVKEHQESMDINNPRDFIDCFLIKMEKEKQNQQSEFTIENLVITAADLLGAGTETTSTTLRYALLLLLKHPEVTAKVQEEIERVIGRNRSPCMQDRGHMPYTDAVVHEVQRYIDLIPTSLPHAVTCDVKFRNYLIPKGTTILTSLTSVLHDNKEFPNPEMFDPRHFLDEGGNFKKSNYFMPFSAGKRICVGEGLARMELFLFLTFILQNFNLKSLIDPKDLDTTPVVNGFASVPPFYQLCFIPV

[5] = Half-life in Sprague-Dawley rat at 20 mg/kg, po measured upto 12 hrs by LC-MS/MS analysis; assay type: ADME, organism-based; settings: in vivo
[6] = in vitro; settings: human, human liver (fraction not stated)
[7] = target: T1, Cytochrome P450 1A2 (Homo sapiens, UniProt P05177)
T1 sequence (P05177 whole entry): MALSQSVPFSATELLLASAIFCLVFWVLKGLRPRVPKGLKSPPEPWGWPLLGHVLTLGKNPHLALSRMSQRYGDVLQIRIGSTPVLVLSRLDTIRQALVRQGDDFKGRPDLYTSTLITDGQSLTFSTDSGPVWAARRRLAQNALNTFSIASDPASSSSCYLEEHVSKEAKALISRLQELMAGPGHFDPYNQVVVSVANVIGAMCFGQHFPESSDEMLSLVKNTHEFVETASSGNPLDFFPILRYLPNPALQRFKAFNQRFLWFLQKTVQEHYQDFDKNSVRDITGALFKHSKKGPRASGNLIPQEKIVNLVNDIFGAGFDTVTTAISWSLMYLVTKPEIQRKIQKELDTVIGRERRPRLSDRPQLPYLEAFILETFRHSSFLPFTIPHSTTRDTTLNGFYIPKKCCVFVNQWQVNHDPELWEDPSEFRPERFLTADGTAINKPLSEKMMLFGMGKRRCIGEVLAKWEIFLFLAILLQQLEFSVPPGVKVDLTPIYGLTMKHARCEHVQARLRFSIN

[8] = target: Cytochrome P450 3A4 (Homo sapiens, UniProt P08684); assay type: ADME, microsomes, Liver, Microsome
Chain of Cytochrome P450 3A4 (P08684 whole entry): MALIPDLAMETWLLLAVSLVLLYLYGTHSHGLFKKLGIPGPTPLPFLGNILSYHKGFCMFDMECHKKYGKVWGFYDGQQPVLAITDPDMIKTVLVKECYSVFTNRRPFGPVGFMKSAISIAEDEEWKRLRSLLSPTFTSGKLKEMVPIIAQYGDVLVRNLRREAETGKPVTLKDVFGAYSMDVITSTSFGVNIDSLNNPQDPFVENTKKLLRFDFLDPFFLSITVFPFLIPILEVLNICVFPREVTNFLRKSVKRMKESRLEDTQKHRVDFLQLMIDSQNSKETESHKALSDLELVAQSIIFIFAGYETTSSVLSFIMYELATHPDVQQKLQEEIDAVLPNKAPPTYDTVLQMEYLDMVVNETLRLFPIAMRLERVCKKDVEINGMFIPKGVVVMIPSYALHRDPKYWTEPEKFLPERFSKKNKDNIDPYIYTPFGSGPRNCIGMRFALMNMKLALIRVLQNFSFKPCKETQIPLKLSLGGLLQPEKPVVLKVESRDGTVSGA

[9] = Tmax in Sprague-Dawley rat at 2 mg/kg, iv measured upto 12 hrs by LC-MS/MS analysis; assay type: ADME, organism-based; settings: in vivo
[10] = Subacute toxicity in 12 hrs fasted Kunming mouse assessed as animal death at 50 mg/kg, po administered once every two days for 2 weeks; assay type: organism-based; settings: in vivo
[11] = Half-life in Sprague-Dawley rat at 2 mg/kg, iv measured upto 12 hrs by LC-MS/MS analysis; assay type: ADME, organism-based; settings: in vivo
[12] = Subacute toxicity in 12 hrs fasted Kunming mouse assessed as increase in body weight at 50 mg/kg, po administered once every two days for 2 weeks relative to control; assay type: organism-based; settings: in vivo
[13] = in vitro; settings: human, human liver (fraction not stated); remark: listed apart in the source
[14] = Acute toxicity in 12 hrs fasted Kunming mouse assessed as lethargy at 1000 mg/kg, po measured for 1 week; assay type: organism-based; settings: in vivo, 168 h, time 1 weeks
[15] = Oral bioavailability in Sprague-Dawley rat at 20 mg/kg measured upto 12 hrs by LC-MS/MS analysis; assay type: ADME, organism-based; settings: in vivo
[16] = Acute toxicity in 12 hrs fasted Kunming mouse assessed as ruffled fur at 1000 mg/kg, po measured for 1 week; assay type: organism-based; settings: in vivo, 168 h, time 1 weeks
[17] = in vitro; settings: human, Caco-2
[18] = Tmax in Sprague-Dawley rat at 20 mg/kg, po measured upto 12 hrs by LC-MS/MS analysis; assay type: ADME, organism-based; settings: in vivo
[19] = Cmax in Sprague-Dawley rat at 2 mg/kg, iv measured upto 12 hrs by LC-MS/MS analysis; assay type: ADME, organism-based; set-up: time < 12 hrs, dose 2 mg/kg, route iv; settings: in vivo
[20] = Subacute toxicity in 12 hrs fasted Kunming mouse assessed as side effect at 50 mg/kg, iv administered once every two days for 2 weeks; assay type: organism-based; settings: in vivo
[21] = Acute toxicity in 12 hrs fasted Kunming mouse assessed as clonic convulsion at 1000 mg/kg, po measured for 1 week; assay type: organism-based; settings: in vivo, 168 h, time 1 weeks
[22] = Subacute toxicity in 12 hrs fasted Kunming mouse assessed as poisoning symptom at 50 mg/kg, po administered once every two days for 2 weeks; assay type: organism-based; settings: in vivo
[23] = target: Cytochrome P450 2C9 (Homo sapiens, UniProt P11712); assay type: ADME, microsomes, Liver, Microsome
Chain of Cytochrome P450 2C9 (P11712 whole entry): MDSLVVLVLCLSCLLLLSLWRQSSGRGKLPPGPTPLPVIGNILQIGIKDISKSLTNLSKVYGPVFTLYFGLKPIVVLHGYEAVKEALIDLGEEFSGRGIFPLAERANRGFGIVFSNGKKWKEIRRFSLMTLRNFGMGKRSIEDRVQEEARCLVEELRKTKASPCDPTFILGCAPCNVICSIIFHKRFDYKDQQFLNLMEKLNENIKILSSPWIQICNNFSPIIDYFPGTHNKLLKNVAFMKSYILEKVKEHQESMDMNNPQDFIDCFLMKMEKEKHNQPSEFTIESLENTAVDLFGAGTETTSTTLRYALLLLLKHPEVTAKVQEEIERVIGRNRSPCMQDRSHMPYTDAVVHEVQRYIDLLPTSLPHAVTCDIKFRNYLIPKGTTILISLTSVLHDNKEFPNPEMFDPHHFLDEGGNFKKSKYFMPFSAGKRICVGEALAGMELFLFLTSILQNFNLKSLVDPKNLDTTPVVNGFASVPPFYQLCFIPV

[24] = Clearance in Sprague-Dawley rat at 2 mg/kg, iv measured upto 12 hrs by LC-MS/MS analysis; assay type: ADME, organism-based; settings: in vivo
[25] = Volume of distribution at steady state in Sprague-Dawley rat at 2 mg/kg, iv measured upto 12 hrs by LC-MS/MS analysis; assay type: ADME, organism-based; settings: in vivo, read-out: Vdss
[26] = Acute toxicity in 12 hrs fasted Kunming mouse assessed as animal death at 1000 mg/kg, po measured for 1 week; assay type: organism-based; settings: in vivo, 168 h, time 1 weeks
[27] = Cmax in Sprague-Dawley rat at 20 mg/kg, po measured upto 12 hrs by LC-MS/MS analysis; assay type: ADME, organism-based; set-up: time < 12 hrs, dose 20 mg/kg, route po; settings: in vivo
[28] = in vitro; settings: human, liver microsomes
[29] = target: Cytochrome P450 2D6 (Homo sapiens, UniProt P10635)
Chain of Cytochrome P450 2D6 (P10635 whole entry): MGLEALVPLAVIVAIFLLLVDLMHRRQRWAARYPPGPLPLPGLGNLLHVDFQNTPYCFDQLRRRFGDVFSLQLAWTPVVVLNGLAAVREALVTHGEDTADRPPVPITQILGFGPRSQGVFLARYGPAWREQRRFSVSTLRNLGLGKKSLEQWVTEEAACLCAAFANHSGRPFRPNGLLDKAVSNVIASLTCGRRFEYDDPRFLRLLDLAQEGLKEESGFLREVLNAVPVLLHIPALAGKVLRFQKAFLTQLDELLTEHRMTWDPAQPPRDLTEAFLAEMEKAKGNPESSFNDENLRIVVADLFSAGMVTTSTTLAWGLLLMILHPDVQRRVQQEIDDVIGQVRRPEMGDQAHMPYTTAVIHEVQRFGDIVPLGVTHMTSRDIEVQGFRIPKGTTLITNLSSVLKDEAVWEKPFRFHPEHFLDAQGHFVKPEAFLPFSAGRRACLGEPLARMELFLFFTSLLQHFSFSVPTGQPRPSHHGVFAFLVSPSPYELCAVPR

Compound | CC50 at 48 h [1] [µM] | CC50 at 48 h [2] [µM] | pIC50 [4] | CLint scaled at 2 h [6] [mL/min/kg] | pIC50 [7] | pIC50 [8] | remaining at 60 min [13] [%] | pIC50 [23] | half-life at 2 h [28] [min] | pIC50 [29] | also measured
CCC(CC)O[C@@H]1C=C(C(=O)O)C[C@H](NCc2ccc(-c3cccs3)c(Cl)c2)[C@H]1NC(C)=O | > 250 | > 250 |  |  |  |  |  |  |  |  | 
CCC(CC)O[C@@H]1C=C(C(=O)O)C[C@H](NCc2ccc(-c3cccs3)cc2OC)[C@H]1NC(C)=O | > 250 | > 250 | 4.52 | 10.4 | 4.68 | 4.06 | 73.8 | 4.38 | 120 | < 4.00 | Activity [3]: Non-Toxic; half-life [5]: 20.9 min; Tmax [9]: 4.98 min; Activity [10]: Non-Toxic; half-life [11]: 12.8 min; Activity [12]: Non-Toxic; Activity [14]: Non-Toxic; bioavailability [15]: 1.5%; Activity [16]: Non-Toxic; Papp A→B at 2 h, 20 µM [17]: 0.0191 ×10⁻⁶ cm/s; Tmax [18]: 20 min; Cmax [19]: 6870 ng/mL; Activity [20]: Non-Toxic; Activity [21]: Non-Toxic; Activity [22]: Non-Toxic; clearance [24]: 17.7 mL/min/kg; Vd [25]: 0.191 L/kg; Activity [26]: Non-Toxic; Cmax [27]: 511 ng/mL
CCC(CC)O[C@@H]1C=C(C(=O)O)C[C@H](NCc2c(C)cc(-c3cccs3)cc2C)[C@H]1NC(C)=O | > 250 | > 250 |  |  |  |  |  |  |  |  | 
CCC(CC)O[C@@H]1C=C(C(=O)O)C[C@H](NCc2ccc(-c3ccsc3)cc2C)[C@H]1NC(C)=O | > 250 | > 250 |  |  |  |  |  |  |  |  | 
CCC(CC)O[C@@H]1C=C(C(=O)O)C[C@H](NCc2c(C)cc(-c3ccsc3)cc2C)[C@H]1NC(C)=O | > 250 | > 250 |  |  |  |  |  |  |  |  | 
CCC(CC)O[C@@H]1C=C(C(=O)O)C[C@H](NCc2ccc(-c3ccsc3)cc2O)[C@H]1NC(C)=O | > 250 | > 250 |  | 17.2 |  |  | 59 |  | 44.5 |  | 
CCC(CC)O[C@@H]1C=C(C(=O)O)C[C@H](NCc2ccc(-c3ccsc3)cc2OC)[C@H]1NC(C)=O | > 250 | > 250 | 4.32 | < 8.6 | 4.54 | < 4.00 | 79.3 | 4.33 | > 145 | < 4.00 | Activity [3]: Non-Toxic; half-life [5]: 50.2 min; Tmax [9]: 4.98 min; Activity [10]: Non-Toxic; half-life [11]: 12.8 min; Activity [12]: Non-Toxic; Activity [14]: Non-Toxic; bioavailability [15]: 1.58%; Activity [16]: Non-Toxic; Papp A→B at 2 h, 20 µM [17]: 0.0262 ×10⁻⁶ cm/s; Tmax [18]: 30 min; Cmax [19]: 7200 ng/mL; Activity [20]: Non-Toxic; Activity [21]: Non-Toxic; Activity [22]: Non-Toxic; clearance [24]: 17.2 mL/min/kg; Vd [25]: 0.179 L/kg; Activity [26]: Non-Toxic; Cmax [27]: 491 ng/mL
CCC(CC)O[C@@H]1C=C(C(=O)O)C[C@H](NCc2ccc(-c3ccsc3)cc2Cl)[C@H]1NC(C)=O | > 250 | > 250 | 4.44 | < 8.6 | 4.84 | 4.14 | 78.1 | 4.50 | > 145 | < 4.00 | 
CCC(CC)O[C@@H]1C=C(C(=O)O)C[C@H](NCc2ccc(-c3cccs3)cc2C)[C@H]1NC(C)=O | > 250 | > 250 | 4.41 | 10.2 | 4.71 | < 4.00 | 71.7 | 4.36 | 123 | < 4.00 | 
CCC(CC)O[C@@H]1C=C(C(=O)O)C[C@H](NCc2ccc(-c3cccs3)cc2Cl)[C@H]1NC(C)=O | > 250 | > 250 | 4.41 | < 8.6 | 4.90 | < 4.00 | 76.1 | 4.06 | > 145 | < 4.00 | 
O=C(O)Cc1ccccc1Nc1c(Cl)cccc1Cl [DICLOFENAC] |  |  |  | 225 |  |  |  |  | 5.5 |  | 
CC(C)(C)NCC(O)COc1cccc2c1CC(O)C(O)C2 (stereo unspecified) [NADOLOL] |  |  |  |  |  |  |  |  |  |  | Papp A→B at 2 h, 20 µM [17]: 0.0491 ×10⁻⁶ cm/s
CCC(CC)O[C@@H]1C=C(C(=O)O)C[C@H](N)[C@H]1NC(C)=O [OSELTAMIVIR CARBOXYLATE] | > 250 | > 250 |  | 28 |  |  | 40.6 |  | 72.4 |  | 
C[C@]12CC[C@H]3[C@@H](CCC4=CC(=O)CC[C@@]43C)[C@@H]1CC[C@@H]2O [TESTOSTERONE] |  |  |  | 89.7 |  |  | 5.1 |  |  |  | 
